Values of other authors in publication PMC3691235, “Discovery of a Novel Dual Fungal CYP51/Human 5-Lipoxygenase Inhibitor: Implications for Anti-Fungal Therapy” (PLoS ONE, 2013).

Tests used:
[1] = target: T1, Human leukocyte 5-lipoxygenase (Homo sapiens, UniProt P09917); conditions: ref [12], [13]; read-out: 5-LOX IC50; cited from earlier work
T1 construct: made in house
T1 sequence (P09917 1-674): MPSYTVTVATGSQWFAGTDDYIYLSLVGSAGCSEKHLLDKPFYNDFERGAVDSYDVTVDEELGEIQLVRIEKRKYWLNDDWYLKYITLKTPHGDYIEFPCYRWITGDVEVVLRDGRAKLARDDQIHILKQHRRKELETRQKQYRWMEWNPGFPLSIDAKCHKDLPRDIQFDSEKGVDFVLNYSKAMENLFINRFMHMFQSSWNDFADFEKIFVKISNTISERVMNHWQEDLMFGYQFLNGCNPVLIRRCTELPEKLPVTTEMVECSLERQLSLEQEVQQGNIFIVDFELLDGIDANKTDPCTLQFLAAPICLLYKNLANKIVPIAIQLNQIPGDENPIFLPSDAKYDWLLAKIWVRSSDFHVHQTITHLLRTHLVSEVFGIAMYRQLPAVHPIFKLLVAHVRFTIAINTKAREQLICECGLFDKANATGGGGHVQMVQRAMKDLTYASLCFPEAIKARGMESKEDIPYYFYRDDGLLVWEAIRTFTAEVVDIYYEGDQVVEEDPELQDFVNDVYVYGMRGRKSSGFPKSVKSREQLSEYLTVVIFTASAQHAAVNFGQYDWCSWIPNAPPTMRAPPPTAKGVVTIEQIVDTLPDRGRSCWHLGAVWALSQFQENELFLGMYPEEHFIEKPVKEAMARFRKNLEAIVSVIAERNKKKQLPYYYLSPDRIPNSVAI

[2] = target: T2, Homo sapiens CYP51 (HsCYP51) (Homo sapiens, UniProt Q16850); design: method as in PMID 20149798; conditions: ref [40]; read-out: Kd with HsCYP51, previously reported; cited from earlier work
T2 construct: made in house; host or cells: E. coli
T2 sequence (Q16850 1-509): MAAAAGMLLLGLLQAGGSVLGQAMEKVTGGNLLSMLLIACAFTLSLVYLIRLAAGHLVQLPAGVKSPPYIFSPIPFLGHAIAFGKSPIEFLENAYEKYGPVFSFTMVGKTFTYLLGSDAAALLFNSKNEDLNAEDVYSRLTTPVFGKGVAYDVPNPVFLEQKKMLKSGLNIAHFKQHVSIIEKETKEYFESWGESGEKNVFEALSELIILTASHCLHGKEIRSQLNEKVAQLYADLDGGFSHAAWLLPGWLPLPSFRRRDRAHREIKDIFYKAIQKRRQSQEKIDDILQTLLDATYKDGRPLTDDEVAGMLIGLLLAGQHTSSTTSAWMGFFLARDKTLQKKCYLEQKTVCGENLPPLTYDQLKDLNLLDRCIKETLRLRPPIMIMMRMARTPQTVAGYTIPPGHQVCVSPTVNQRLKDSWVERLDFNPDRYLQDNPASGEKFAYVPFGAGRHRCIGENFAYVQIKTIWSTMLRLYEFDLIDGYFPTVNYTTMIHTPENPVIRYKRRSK

SMILES: CCC(C)n1ncn(-c2ccc(N3CCN(c4ccc(OCC5COC(Cn6cncn6)(c6ccc(Cl)cc6Cl)O5)cc4)CC3)cc2)c1=O (centres unmarked) [itraconazole]
- IC50 [1]: > 50 µM

SMILES: Clc1ccc(COC(Cn2ccnc2)c2ccc(Cl)cc2Cl)c(Cl)c1 (centres unmarked) [miconazole]
- Kd [2]: < 0.1 µM
